The results in this text go back to patent US8697739B2, “Bicyclic acetyl-CoA carboxylase inhibitors and uses thereof” (Novartis AG, priority 2010, dated 2014).

T1 sequence (O00763 144-2458): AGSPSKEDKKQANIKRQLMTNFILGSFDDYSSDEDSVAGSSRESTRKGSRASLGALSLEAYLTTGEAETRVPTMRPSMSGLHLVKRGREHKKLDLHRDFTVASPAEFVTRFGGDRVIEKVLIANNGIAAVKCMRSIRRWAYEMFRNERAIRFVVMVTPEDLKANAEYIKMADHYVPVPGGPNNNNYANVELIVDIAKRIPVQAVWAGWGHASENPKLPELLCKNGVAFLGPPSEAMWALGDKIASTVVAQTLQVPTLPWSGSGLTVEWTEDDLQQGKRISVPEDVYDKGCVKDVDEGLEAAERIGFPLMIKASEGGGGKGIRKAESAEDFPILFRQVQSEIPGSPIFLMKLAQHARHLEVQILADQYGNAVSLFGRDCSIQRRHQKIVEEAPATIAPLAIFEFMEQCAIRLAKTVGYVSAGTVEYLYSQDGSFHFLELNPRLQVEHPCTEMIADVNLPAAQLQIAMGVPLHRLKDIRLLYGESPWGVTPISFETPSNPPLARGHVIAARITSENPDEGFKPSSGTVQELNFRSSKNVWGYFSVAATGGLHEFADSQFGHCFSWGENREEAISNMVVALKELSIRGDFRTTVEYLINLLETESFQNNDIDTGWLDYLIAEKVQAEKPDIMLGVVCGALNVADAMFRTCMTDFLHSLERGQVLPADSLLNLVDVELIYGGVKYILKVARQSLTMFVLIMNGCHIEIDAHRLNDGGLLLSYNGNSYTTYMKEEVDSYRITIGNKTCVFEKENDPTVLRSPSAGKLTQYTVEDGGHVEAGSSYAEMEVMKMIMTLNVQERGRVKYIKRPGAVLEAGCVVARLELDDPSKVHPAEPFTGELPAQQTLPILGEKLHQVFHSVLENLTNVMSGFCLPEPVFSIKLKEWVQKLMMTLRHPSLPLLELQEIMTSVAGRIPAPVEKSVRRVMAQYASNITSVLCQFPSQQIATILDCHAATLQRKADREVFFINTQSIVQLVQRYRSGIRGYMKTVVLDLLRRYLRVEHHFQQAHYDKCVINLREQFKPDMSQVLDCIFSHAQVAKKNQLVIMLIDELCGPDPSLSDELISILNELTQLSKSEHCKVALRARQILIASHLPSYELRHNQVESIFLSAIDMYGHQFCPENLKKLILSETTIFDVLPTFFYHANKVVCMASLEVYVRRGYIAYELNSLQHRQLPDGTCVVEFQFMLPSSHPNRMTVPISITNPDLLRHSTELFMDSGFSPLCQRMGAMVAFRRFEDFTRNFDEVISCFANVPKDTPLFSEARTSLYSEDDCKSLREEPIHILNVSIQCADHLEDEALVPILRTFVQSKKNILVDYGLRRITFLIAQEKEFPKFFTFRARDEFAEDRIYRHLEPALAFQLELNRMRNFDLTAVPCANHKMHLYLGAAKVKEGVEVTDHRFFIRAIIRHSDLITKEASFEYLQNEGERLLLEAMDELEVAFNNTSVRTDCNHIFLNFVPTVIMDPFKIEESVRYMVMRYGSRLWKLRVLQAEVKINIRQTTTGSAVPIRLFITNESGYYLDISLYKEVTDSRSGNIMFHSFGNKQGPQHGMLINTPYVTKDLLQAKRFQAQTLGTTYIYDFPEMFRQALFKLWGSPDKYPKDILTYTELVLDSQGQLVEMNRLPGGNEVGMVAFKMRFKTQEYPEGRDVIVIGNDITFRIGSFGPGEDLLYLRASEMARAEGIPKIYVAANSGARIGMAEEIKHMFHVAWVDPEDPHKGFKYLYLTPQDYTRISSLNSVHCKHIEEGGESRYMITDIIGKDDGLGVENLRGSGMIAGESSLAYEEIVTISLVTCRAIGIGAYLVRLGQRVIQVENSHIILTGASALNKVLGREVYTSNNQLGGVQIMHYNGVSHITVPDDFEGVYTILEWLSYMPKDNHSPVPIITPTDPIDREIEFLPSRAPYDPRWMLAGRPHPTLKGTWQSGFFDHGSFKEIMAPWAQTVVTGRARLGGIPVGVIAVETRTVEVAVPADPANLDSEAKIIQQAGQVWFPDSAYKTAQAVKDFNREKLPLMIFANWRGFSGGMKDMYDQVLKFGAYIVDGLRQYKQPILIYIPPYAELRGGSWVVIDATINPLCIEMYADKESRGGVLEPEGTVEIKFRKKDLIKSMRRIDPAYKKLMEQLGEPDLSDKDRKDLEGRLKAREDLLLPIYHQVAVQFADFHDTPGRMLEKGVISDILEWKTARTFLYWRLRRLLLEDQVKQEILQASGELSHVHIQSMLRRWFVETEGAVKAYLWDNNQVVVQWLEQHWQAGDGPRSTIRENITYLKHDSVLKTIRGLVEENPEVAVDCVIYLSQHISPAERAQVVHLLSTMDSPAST

This assay has as its target T1, human acetyl-CoA carboxylase 2 (ACC2) (Homo sapiens, UniProt O00763).
T1 construct: The cDNA encoding amino acids 144 to 2458 of human acetyl-CoA carboxylase 2; made in house; host or cells: Sf9 insect cells (baculovirus, pFastBac1)
Nature of the assay: Acetyl-CoA carboxylase enzyme assay (malonyl-CoA formation by LC/MS/MS). The class given is biochemical. The settings on record: recombinant human ACC2 (aa 144-2458); read-out: IC50 ACC2. The essentials: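 Malonyl-CoA formation was read by LC/MS/MS MRM against a [13C3]-malonyl-CoA internal standard, after acetic acid quench. The enzyme was baculovirus/Sf9-expressed human ACC2 residues 144–2458, given 15 minutes room-temperature compound preincubation in HEPES pH 7.5 buffer with MgCl2, citrate and DTT. Substrate solution held 50 μM acetyl-CoA, 120 μM ATP and 2 mM KHCO3.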
For orientation: IC50 means the midpoint of a concentration-inhibition curve. Turning to `CCOc1ccc2cc(S(=O)(=O)N[C@H]3CC[C@H](C(=O)N4CCNC[C@@H]4C(=O)O)CC3)ccc2n1` [Example 246, (R)-1-((1r,4R)-4-(2-ethoxyquinoline-6-sulfonamido)cyclohexanecarbonyl)piperazine-2-carboxylic acid], the IC50 is above 35 µM.

As for `CC(C)OC(=O)c1ccc(NS(=O)(=O)c2ccc3nc(-c4ccc(Oc5ccccc5)cc4)[nH]c3c2)cc1` [Example 507, isopropyl 4-(2-(4-phenoxyphenyl)-1H-benzo[d]imidazole-6-sulfonamido)benzoate], the IC50 is 22.1 µM.

Take `CC(C)c1nnc([C@H]2CC[C@H](NS(=O)(=O)c3ccc4[nH]c(-c5ccccc5)nc4c3)CC2)o1` [Example 586, N-((1r,4r)-4-(5-isopropyl-1,3,4-oxadiazol-2-yl)cyclohexyl)-2-phenyl-1H-benzo[d]imidazole-5-sulfonamide]: the 50% inhibitory concentration (IC50) was determined as 1.3 µM.

With `[2H]C([2H])([2H])N1CCOc2ccc(S(=O)(=O)N[C@H]3CC[C@H](C(=O)N[C@H](C)c4ccc(F)cc4)CC3)cc21` [Example 158, (1r,4R)-N-((R)-1-(4-fluorophenyl)ethyl)-4-(4-(trideuteriomethyl)-3,4-dihydro-2H-benzo[b][1,4]oxazine-6-sulfonamido)cyclohexanecarboxamide], the IC50 was found to be 0.02 µM.

In the case of `CCOc1ccc2cc(S(=O)(=O)N[C@H]3CC[C@H](C(=O)N4CCN(C(=O)OC(C)(C)C)C[C@@H]4C(=O)OC)CC3)ccc2n1` [Example 235, (R)-1-tert-butyl 3-methyl 4-((1r,4R)-4-(2-ethoxyquinoline-6-sulfonamido)cyclohexanecarbonyl)piperazine-1,3-dicarboxylate], the IC50 was 0.095 µM.

Regarding `Cc1ccccc1-c1cc2ccc(S(=O)(=O)N[C@H]3CC[C@H](C(=O)N4CCOC[C@@H]4c4ccccc4)CC3)cc2[nH]1` [Example 326, N-((1S,4r)-4-((S)-3-phenylmorpholine-4-carbonyl)cyclohexyl)-2-o-tolyl-1H-indole-6-sulfonamide], the IC50 was 0.325 µM.

Take `Cc1c(-c2ccccc2)nc2ccc(S(=O)(=O)N[C@H]3CC[C@H](C(=O)N[C@H](C)c4ccc(F)cc4)CC3)cn12` [Example 70, (1r,4R)-N-((R)-1-(4-fluorophenyl)ethyl)-4-(3-methyl-2-phenylimidazo[1,2-a]pyridine-6-sulfonamido)cyclohexanecarboxamide]: the half-inhibitory concentration (IC50) worked out at 0.165 µM.

In the case of `COc1cc(Nc2nc3cc(S(=O)(=O)Nc4ccc(C(=O)OC(C)C)cc4)ccc3[nH]2)cc(OC)c1OC` [Example 543, isopropyl 4-(2-(3,4,5-trimethoxyphenylamino)-1H-benzo[d]imidazole-5-sulfonamido)benzoate], the IC50 amounted to 0.28 µM.

`COc1ccc(Nc2nc3cc(S(=O)(=O)N[C@H]4CC[C@H](C(=O)OC(C)C)CC4)ccc3[nH]2)cc1` [Example 555, (1r,4r)-isopropyl 4-(2-(4-methoxyphenylamino)-1H-benzo[d]imidazole-5-sulfonamido)cyclohexanecarboxylate]: the IC50 stood at 0.03 µM.

Consider `C[C@@H](NC(=O)[C@H]1CC[C@H](NS(=O)(=O)c2ccc3nc(-c4ccccc4)ccc3c2)CC1)c1ccc(F)cc1` [Example 202, (1r,4R)-N-((R)-1-(4-fluorophenyl)ethyl)-4-(2-phenylquinoline-6-sulfonamido)cyclohexanecarboxamide], for which the IC50 was found to be 0.02 µM.

Take `COc1ccc(-c2nc3ccc(S(=O)(=O)Nc4ccc(C(=O)OC(C)C)cc4)cc3[nH]2)cc1OC` [Example 516, isopropyl 4-(2-(3,4-dimethoxyphenyl)-1H-benzo[d]imidazole-6-sulfonamido)benzoate]: the IC50 was 1.21 µM.

For the compound `Cn1c(-c2ccc(CCC(=O)O)cc2)c(C#N)c2ccc(S(=O)(=O)N[C@H]3CC[C@H](C(=O)N4CCC[C@@H]4C(C)(C)C)CC3)cc21` [Example 430, 3-(4-(6-(N-((1R,4r)-4-((R)-2-tert-butylpyrrolidine-1-carbonyl)cyclohexyl)sulfamoyl)-3-cyano-1-methyl-1H-indol-2-yl)phenyl)propanoic acid], the IC50 was below 0.01 µM.

In the case of `Cn1c(C2CC2)c(C#N)c2ccc(S(=O)(=O)N[C@H]3CC[C@H](C(=O)N4CCCCC4)CC3)cc21` [Example 381, 3-cyano-2-cyclopropyl-1-methyl-N-((1r,4r)-4-(piperidine-1-carbonyl)cyclohexyl)-1H-indole-6-sulfonamide], the half-maximal inhibitory concentration (IC50) is 0.21 µM.

Consider `Cc1cc(CO)ccc1-c1cc2ccc(S(=O)(=O)N[C@H]3CC[C@H](C(=O)N4CCOCC4)CC3)cc2[nH]1` [Example 308, 2-(4-(hydroxymethyl)-2-methylphenyl)-N-((1r,4r)-4-(morpholine-4-carbonyl)cyclohexyl)-1H-indole-6-sulfonamide], for which the IC50 is 0.06 µM.

With `O=C(NCC1CCCCCC1)[C@H]1CC[C@H](NS(=O)(=O)c2ccc3[nH]c(-c4ccccc4)nc3c2)CC1` [Example 641, (1r,4r)-N-(cycloheptylmethyl)-4-(2-phenyl-1H-benzo[d]imidazole-5-sulfonamido)cyclohexanecarboxamide], the half-maximal inhibitory concentration (IC50) was 0.276 µM.

Consider `C[C@@H](NC(=O)[C@H]1CC[C@H](NS(=O)(=O)c2ccc3nc(-c4ccccc4)sc3c2)CC1)c1ccc(F)cc1` [Example 120, (1r,4R)-N-((R)-1-(4-fluorophenyl)ethyl)-4-(2-phenylbenzo[d]thiazole-6-sulfonamido)cyclohexanecarboxamide], for which the IC50 was found to be 0.034 µM.

Take `CC1CCc2cc(S(=O)(=O)N[C@H]3CC[C@H](C(=O)N[C@H](C)c4ccc(F)cc4)CC3)ccc2N1` (stereo partly drawn) [Example 169, (1r,4R)-N-((R)-1-(4-fluorophenyl)ethyl)-4-(2-methyl-1,2,3,4-tetrahydroquinoline-6-sulfonamido)cyclohexanecarboxamide]: the 50% inhibitory concentration (IC50) worked out at 0.11 µM.

Turning to `Cc1c(C(F)(F)F)nc2cccc(S(=O)(=O)N[C@H]3CC[C@H](C(=O)N[C@H](C)c4ccc(F)cc4)CC3)n12` [Example 63, (1r,4R)-N-((R)-1-(4-fluorophenyl)ethyl)-4-(3-methyl-2-(trifluoromethyl)imidazo[1,2-a]pyridine-5-sulfonamido)cyclohexanecarboxamide], the IC50 was above 35 µM.

As to `Cn1c(-c2ccccc2)cc2ccc(S(=O)(=O)N[C@H]3CC[C@H](C(=O)N4CCCCC4)CC3)cc21` [Example 376, 1-methyl-2-phenyl-N-((1r,4r)-4-(piperidine-1-carbonyl)cyclohexyl)-1H-indole-6-sulfonamide], the IC50 turned out to be 0.095 µM.

As to `C[C@@H](NC(=O)[C@H]1CC[C@H](NS(=O)(=O)c2ccc3nc(OCC(F)(F)F)ccc3c2)CC1)c1ccc(F)cc1` [Example 50, (1r,4R)-N-((R)-1-(4-fluorophenyl)ethyl)-4-(2-(2,2,2-trifluoroethoxy)quinoline-6-sulfonamido)cyclohexanecarboxamide], the IC50 is above 35 µM.

In the case of `COCCOc1ccc(-c2cc3ccc(S(=O)(=O)N[C@H]4CC[C@H](C(=O)N5CCOC(C)(C)C5)CC4)cc3n2C)cc1` [Example 450, N-((1r,4r)-4-(2,2-dimethylmorpholine-4-carbonyl)cyclohexyl)-2-(4-(2-methoxyethoxy)phenyl)-1-methyl-1H-indole-6-sulfonamide], the IC50 was 0.13 µM.

In the case of `CCOC(=O)CCc1cc2ccc(S(=O)(=O)N[C@H]3CC[C@H](C(=O)N4CCCC4c4ccc(F)cc4)CC3)cc2n1C` (some centres unmarked) [Example 369, ethyl 3-(6-(N-((1r,4r)-4-(2-(4-fluorophenyl)pyrrolidine-1-carbonyl)cyclohexyl)sulfamoyl)-1-methyl-1H-indol-2-yl)propanoate], the IC50 was found to be 0.18 µM.

Consider `CCN(C)C(=O)[C@H]1CC[C@H](NS(=O)(=O)c2ccc3[nH]c(-c4ccc(N5CCN(C)CC5)cc4)nc3c2)CC1` [Example 567, (1r,4r)-N-ethyl-N-methyl-4-(2-(4-(4-methylpiperazin-1-yl)phenyl)-1H-benzo[d]imidazole-5-sulfonamido)cyclohexanecarboxamide], for which the 50% inhibitory concentration (IC50) turned out to be 0.065 µM.

Regarding `C[C@H]1CCCCN1C(=O)[C@H]1CC[C@H](NS(=O)(=O)c2ccc3cc(-c4ccccc4)n(C)c3c2)CC1` [Example 405, 1-methyl-N-((1S,4r)-4-((S)-2-methylpiperidine-1-carbonyl)cyclohexyl)-2-phenyl-1H-indole-6-sulfonamide], the IC50 is 0.035 µM.

With `Cn1c(-c2ccccc2)cc2ccc(S(=O)(=O)N[C@H]3CC[C@H](C(=O)N4CCC[C@@H]4C(C)(C)O)CC3)cc21` [Example 443, N-((1R,4r)-4-((R)-2-(2-hydroxypropan-2-yl)pyrrolidine-1-carbonyl)cyclohexyl)-1-methyl-2-phenyl-1H-indole-6-sulfonamide], the IC50 worked out at 0.03 µM.

With `CC(C)(C)c1nnc([C@H]2CC[C@H](NS(=O)(=O)c3ccc4[nH]c(-c5ccc(C(=O)O)cc5)nc4c3)CC2)o1` [Example 656, 4-(5-(N-((1r,4r)-4-(5-tert-butyl-1,3,4-oxadiazol-2-yl)cyclohexyl)sulfamoyl)-1H-benzo[d]imidazol-2-yl)benzoic acid], the 50% inhibitory concentration (IC50) is 0.87 µM.

Regarding `C[C@@H](NC(=O)[C@H]1CC[C@H](NS(=O)(=O)c2ccc3[nH]c(-c4ccc(CN5CCOCC5)cc4)nc3c2)CC1)c1ccccc1` [Example 577, (1r,4R)-4-(2-(4-(morpholinomethyl)phenyl)-1H-benzo[d]imidazole-5-surfonamido)-N-((R)-1-phenylethyl)cyclohexanecarboxamide], the 50% inhibitory concentration (IC50) was 0.015 µM.

As for `Cc1ccc(-c2nc3ccc(S(=O)(=O)Nc4ccc(C(=O)OC(C)C)cc4)cc3[nH]2)cc1` [Example 504, isopropyl 4-(2-p-tolyl-1H-benzo[d]imidazole-6-sulfonamido)benzoate], the IC50 came out at 1.74 µM.

`C[C@@H](NC(=O)[C@H]1CC[C@H](NS(=O)(=O)c2ccc3[nH]c(Nc4ccccc4)nc3c2)CC1)c1ccccc1` [Example 569, (1r,4R)-4-(2-(phenylamino)-1H-benzo[d]imidazole-5-sulfonamido)-N-((R)-1-phenylethyl)cyclohexanecarboxamide]: the IC50 is below 0.01 µM.
